This passage reports fold induction results from US20220324835A1 (Nurix Therapeutics, Inc., priority 2018, published 2022).

Assay [1] has as its system T-cell. Kind of assay: CD25 cell surface staining on T-cells stimulated with anti-CD3 antibody alone (Biological Example 2). The format is cell-based, human. The conditions noted are these: T-cell, fold change over baseline, primary human total T-cells, read-out: CD25 staining Anti-CD3 stimulation; for fold induction at 1 µM: 1 μM Cbl-b inhibitor; for fold induction at 8 µM: 8 μM Cbl-b inhibitor.

The test system of assay [2] is T-cell. In words: IL-2 secretion from T-cells stimulated with anti-CD3 antibody alone (Biological Example 2). The format is cell-based, human. The following applies: T-cell, fold change over baseline, primary human total T-cells, read-out: IL-2 secretion Anti-CD3 stimulation; for fold induction at 1 µM: 1 μM Cbl-b inhibitor; for fold induction at 8 µM: 8 μM Cbl-b inhibitor.

For `C[C@H](Cc1nncn1C)c1cccc(NC(=O)c2cc(C(=O)N3CC(O)C(F)(F)C3)ccn2)c1` (stereo partly drawn) [Compound 243, 4-(3,3-difluoro-4-hydroxypyrrolidine-1-carbonyl)-N-[3-[(2R)-1-(4-methyl-4H-1,2,4-triazol-3-yl)propan-2-yl]phenyl]pyridine-2-carboxamide], in the assay with T-cell [1], the fold induction at 1 µM lay in the range of 0.601 to 0.8 and the fold induction at 8 µM lay in the range of 0.801 to 1. In the assay on T-cell [2], the fold induction at 1 µM was greater than 0.201 and the fold induction at 8 µM was greater than 0.201.
`CCn1cnnc1C[C@@H](C)c1cccc(NC(=O)c2cc(C(=O)N3C[C@@H](O)C[C@H]3C)ccn2)c1` [Compound 251, N-(3-((R)-1-(4-ethyl-4H-1,2,4-triazol-3-yl)propan-2-yl)phenyl)-4-((2R,4S)-4-hydroxy-2-methylpyrrolidine-1-carbonyl)picolinamide]: in the assay with T-cell [1], the fold induction at 1 µM was in the range of 0.601 to 0.8 and the fold induction at 8 µM is 0.601 to 0.8. Moreover, in the assay with T-cell [2], the fold induction at 1 µM fell in the range of 0.151 to 0.2 and the fold induction at 8 µM lay within 0.151 to 0.2.
On to `C[C@H](Cc1nncn1C)c1cccc(N2Cc3c(Br)cccc3C2=O)c1` [Compound 256, (R)-4-bromo-2-(3-(1-(4-methyl-4H-1,2,4-triazol-3-yl)propan-2-yl)phenyl)isoindolin-1-one], for which the values for the fold induction at 1 µM with T-cell [1] and in the assay on T-cell [2] were 0.801 to 1 and greater than 0.201, respectively. The fold induction at 8 µM in the assay on T-cell [1] was 0.801 to 1; with T-cell [2] it was greater than 0.201.
As for `C[C@H](Cc1nncn1C)c1cccc(N2Cc3c(ccnc3C3CCC3)C2=O)c1` [Compound 258, (R)-4-cyclobutyl-2-(3-(1-(4-methyl-4H-1,2,4-triazol-3-yl)propan-2-yl)phenyl)-2,3-dihydropyrrolo[3,4-c]pyridin-1-one], in the assay on T-cell [1], the fold induction at 1 µM was greater than 1 and the fold induction at 8 µM is greater than 1. Moreover, in the assay on T-cell [2], the fold induction at 1 µM was 0.051 to 0.1 and the fold induction at 8 µM lay within 0.101 to 0.15.
`C[C@H](Cc1nnc[nH]1)c1cccc(N2Cc3c(cccc3C(F)(F)F)C2=O)c1` [Compound 262, (R)-2-(3-(1-(4H-1,2,4-triazol-3-yl)propan-2-yl)phenyl)-4-(trifluoromethyl)isoindolin-1-one]: in the assay on T-cell [1], the fold induction at 1 µM was less than 0.6 and the fold induction at 8 µM was less than 0.6. Further, in the assay with T-cell [2], the fold induction at 1 µM is less than 0.05 and the fold induction at 8 µM was less than 0.05.
On to `C[C@H](Cc1nncn1C1CC1)c1cccc(N2Cc3c(cccc3C(F)(F)F)C2=O)c1` [Compound 265, (R)-2-(3-(1-(4-cyclopropyl-4H-1,2,4-triazol-3-yl)propan-2-yl)phenyl)-4-(trifluoromethyl)isoindolin-1-one], for which the results for the fold induction at 1 µM in the assay with T-cell [1] and in the assay with T-cell [2] were 0.601 to 0.8 and less than 0.05, respectively. Further, the fold induction at 8 µM in the assay on T-cell [1] was 0.801 to 1; in the assay with T-cell [2], less than 0.05.
`Cc1[nH]cnc1CC(C)c1cccc(N2Cc3c(cccc3C(F)(F)F)C2=O)c1` (stereo not drawn) [Compound 272, 2-[3-[1-(5-methyl-1H-imidazol-4-yl)propan-2-yl]phenyl]-4-(trifluoromethyl)isoindolin-1-one]: in the assay on T-cell [1], the fold induction at 1 µM was less than 0.6 and the fold induction at 8 µM is less than 0.6. Besides, in the assay with T-cell [2], the fold induction at 1 µM was in the range of 0.101 to 0.15 and the fold induction at 8 µM was 0.101 to 0.15.
In the case of `C[C@H](Cc1nncn1C)c1cc(F)cc(N2Cc3c(cccc3C(F)(F)F)C2=O)c1` [Compound 281a, 2-[3-Fluoro-5-[(1R)-1-methyl-2-(4-methyl-1,2,4-triazol-3-yl)ethyl]phenyl]-4-(trifluoromethyl)isoindolin-1-one], in the assay on T-cell [1], the fold induction at 1 µM fell in the range of 0.801 to 1 and the fold induction at 8 µM is greater than 1. In addition, in the assay with T-cell [2], the fold induction at 1 µM was less than 0.05 and the fold induction at 8 µM is 0.051 to 0.1.
For `Cn1cnnc1[C@@H]1CC[C@@H]1c1cccc(N2Cc3c(cccc3C(F)(F)F)C2=O)c1` [Compound 283b, 2-(3-((1S,2R)-2-(4-methyl-4H-1,2,4-triazol-3-yl)cyclobutyl)phenyl)-4-(trifluoromethyl)isoindolin-1-one] the same measures were 0.601 to 0.8, 0.801 to 1, 0.101 to 0.15 and greater than 0.201.
For `Cc1ccc(C(=O)Nc2cccc(C(C)C(F)(F)c3nncn3C)c2)nc1C1CC1` (stereo not drawn) [Compound 286, 6-cyclopropyl-N-(3-(1,1-difluoro-1-(4-methyl-4H-1,2,4-triazol-3-yl)propan-2-yl)phenyl)-5-methylpicolinamide] the same measures were 0.801 to 1, greater than 1, 0.051 to 0.1 and 0.101 to 0.15.
With `Cn1cnnc1C[C@](C)(F)c1cccc(N2Cc3c(cccc3C(F)(F)F)C2=O)c1` [Compound 298b, (S)-2-(3-(2-fluoro-1-(4-methyl-4H-1,2,4-triazol-3-yl)propan-2-yl)phenyl)-4-(trifluoromethyl)isoindolin-1-one], in the assay with T-cell [1], the fold induction at 1 µM lay within 0.601 to 0.8 and the fold induction at 8 µM was 0.801 to 1. In the assay with T-cell [2], the fold induction at 1 µM was in the range of 0.051 to 0.1 and the fold induction at 8 µM is 0.101 to 0.15.
For `C[C@H](Cc1nncn1C)c1ccnc(N2Cc3c(cccc3C(F)(F)F)C2=O)c1` [Compound 304b, (R)-2-(4-(1-(4-methyl-4H-1,2,4-triazol-3-yl)propan-2-yl)pyridin-2-yl)-4-(trifluoromethyl)isoindolin-1-one] the same measures were less than 0.6, less than 0.6, less than 0.05 and less than 0.05.
The like results for `Cn1cnnc1[C@@H]1C[C@@H]1c1cccc(NC(=O)c2nc3c(C(F)(F)F)cccc3[nH]2)c1` [Compound 332, N-(3-((1S,2R)-2-(4-methyl-4H-1,2,4-triazol-3-yl)cyclopropyl)phenyl)-4-(trifluoromethyl)-1H-benzo[d]imidazole-2-carboxamide] were, in that order, 0.601 to 0.8, 0.801 to 1, 0.101 to 0.15 and greater than 0.201.
For `Cc1cc(C(=O)Nc2cccc([C@@](C)(F)C(F)(F)c3nncn3C)c2)nc(C2CC2)n1` [Compound 344, (R)-2-Cyclopropyl-6-methyl-N-(3-(1,1,2-trifluoro-1-(4-methyl-4H-1,2,4-triazol-3-yl)propan-2-yl)phenyl)pyrimidine-4-carboxamide] the same measures were 0.801 to 1, greater than 1, 0.101 to 0.15 and greater than 0.201.
With `C[C@H](Cc1nncn1C)c1cc(NCCO)nc(N2Cc3c(cccc3C(F)(F)F)C2=O)c1` [Compound 357, (R)-2-(6-(2-hydroxyethylamino)-4-(1-(4-methyl-4H-1,2,4-triazol-3-yl)propan-2-yl)pyridin-2-yl)-4-(trifluoromethyl)isoindolin-1-one], in the assay on T-cell [1], the fold induction at 1 µM is 0.601 to 0.8 and the fold induction at 8 µM is greater than 1. Further, in the assay with T-cell [2], the fold induction at 1 µM lay within 0.051 to 0.1 and the fold induction at 8 µM is 0.151 to 0.2.
